Laboratory results: patent publication US7071195B2, “Amine and amide derivatives as ligands for the neuropeptide Y Y5 receptor useful in the treatment of obesity and other disorders” (Ortho-McNeil Pharmaceutical, Inc., priority 1999, dated 2006)
Counter-ions that a name gives are not always drawn.

Target: T1, human neuropeptide Y5 receptor (Homo sapiens, UniProt Q15761)
T1 construct: expressed in transfected cells; host or cells: HEK-293 (stably transfected, G-418 selected); membranes
T1 sequence (Q15761 1-445): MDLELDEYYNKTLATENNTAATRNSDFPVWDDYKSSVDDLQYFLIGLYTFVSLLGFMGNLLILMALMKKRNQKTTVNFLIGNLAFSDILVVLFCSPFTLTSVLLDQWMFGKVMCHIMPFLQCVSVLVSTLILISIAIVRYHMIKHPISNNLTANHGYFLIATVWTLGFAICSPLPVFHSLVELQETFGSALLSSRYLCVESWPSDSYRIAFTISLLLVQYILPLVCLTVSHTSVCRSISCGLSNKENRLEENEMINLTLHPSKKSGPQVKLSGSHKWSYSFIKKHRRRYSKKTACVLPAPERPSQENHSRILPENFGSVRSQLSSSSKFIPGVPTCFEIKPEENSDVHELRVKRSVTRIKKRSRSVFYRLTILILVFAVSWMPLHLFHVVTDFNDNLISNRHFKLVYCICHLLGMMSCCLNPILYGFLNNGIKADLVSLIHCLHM
Test: NPY5 HTS centrifugation assay: competition with 125I-PYY for binding to membranes of NPY5-transfected HEK293 cells
Details: 80 pM 125I-PYY, 1 hr room temperature; for inhibition at 0.3 µM / % Inh @ 300 nM (% Inhibition of 125I-PYY Binding): 300 nM compound; for inhibition at 0.3 µM: read-out: % Inh @ 300 nM (% Inhibition of 125I-PYY Binding); for inhibition at 3 µM / % Inh @ 3 uM (% Inhibition of 125I-PYY Binding): 3 uM compound; for inhibition at 3 µM: read-out: % Inh @ 3 uM (% Inhibition of 125I-PYY Binding)
Procedure: The compounds described in this invention were evaluated for binding to the human neuropeptide Y5 receptor.
Stably transfected cells served as the source for the membranes for the NPY5 receptor binding assay.
NPY5-transfected HEK293 cells were grown to confluence in 150 cm^2 culture dishes. […] Cells were then incubated in phosphate-buffered saline without Calcium and without Magnesium, supplemented with 2 mM EDTA. Cells were incubated for 10 minutes at room temperature and the cells were collected by repetitive pipeting. Cells were formed into pellets and then frozen at −80 until needed. Frozen pellets were homogenized with a polytron at full speed for 12 seconds in a homogenization buffer (20 mM Tris HCl, 5 mM EDTA, pH 7.4). Homogenates were centrifuged for 5 minutes at 4 C at 200 g. Supernatants were transferred to corex tubes and centrifuged for 25 minutes at 28,000 g. Pellets were re-suspended in Binding (20 mM HEPES, 10 mM NaCl, 0.22 mM KH2PO4, 1.3 mM CaCl2, 0.8 mM MgSO4, pH 7.4). Membranes were kept on ice until use.
Compounds to be tested were prepared as 10× stocks in binding buffer and added first to assay tubes (RIA vials, Sarstedt). […] To each tube is added 100 μL of membranes and the mixture is agitated by pipeting 2 times. Samples are incubated for 1 hr at room temperature. Aluminum cast plates (Sarstedt) containing the vials are then centrifuged 10 minutes at 3200 rpm in a Sorvall RT6000. Supernatant is then aspirated. To each vial 400 μL PBS is added and this is then aspirated again. Vials are then put in carrier polypropylene 12×75 tube and counted in gamma counter (Packard). Non-specific binding is determined in the presence of 300 nM NPY. […] These operations are known to those skilled in the art.

| SMILES | inhibition at 0.3 µM [%] | inhibition at 3 µM [%] | % Inh @ 300 nM (% Inhibition of 125I-PYY Binding) [%] | % Inh @ 3 uM (% Inhibition of 125I-PYY Binding) [%] |
| --- | --- | --- | --- | --- |
| COc1ccc2c(c1)CCC(NC(=O)[C@H](CCCCNS(=O)(=O)c1ccccc1F)NC(C)=O)C2Cc1cccnc1 (stereo partly drawn) [Compound 10, (2S)-2-(Acetylamino)-6-[(2-fluorophenylsulfonyl)amino]-N-[cis-1,2,3,4-tetrahydro-6-methoxy-1-(3-pyridinylmethyl)-2-naphthenyl]hexanamide bis-hydrochloride] | 60 | 96 |  |  |
| O=S(=O)(NC[C@H]1CC[C@H](CNCC(Cc2cccnc2)c2ccc(F)cc2)CC1)c1ccccc1F (stereo partly shown) [Compound 27] | 105 | 110 |  |  |
| O=C(CN1CCC(NS(=O)(=O)c2ccccc2F)CC1)NCC(Cc1cccnc1)c1ccc(F)cc1 (stereo not shown) [Compound 30, N-[2-(4-Fluorophenyl)-3-(3-pyridinyl)propyl]-4-[(2-fluorophenylsulfonyl)amino]-1-piperidineacetamide bis-trifluoroacetate] | 100 | 110 |  |  |
| O=C(CN1CCC(n2c(=O)[nH]c3ccccc32)CC1)NC1CCc2ccccc2C1Cc1cccnc1 (stereo not shown) [Compound 31] |  |  | 91 | 100 |
| O=C(CN1CCC(NC(=O)c2ccccc2)CC1)NC1CCc2cc(F)ccc2C1Cc1cccnc1 (stereo not shown) [Compound 44] |  |  | 93 | 98 |
| O=C(CN1CCC(NC(=O)Nc2ccccc2)CC1)NC1CCc2cc(F)ccc2C1Cc1cccnc1 (stereo not shown) [Compound 45] |  |  | 68 | 95 |
| O=C(Cc1ccccc1)NC1CCN(CC(=O)NC2CCc3cc(F)ccc3C2Cc2cccnc2)CC1 (stereo not shown) [Compound 47] |  |  | 91 | 98 |
| O=C(CN1CCC(NS(=O)(=O)c2ccccc2)CC1)NC1CCc2cc(F)ccc2C1Cc1cccnc1 (stereo not shown) [Compound 48] |  |  | 97 | 103 |
| O=C(CN1CCC(NC(=O)Nc2ccccc2)CC1)NC1CCc2ccccc2C1Cc1cccnc1 (stereo not shown) [Compound 51] |  |  | 85 | 102 |
| CC(C)(C)NC(=O)NC1CCN(CC(=O)NC2CCc3cc(F)ccc3C2Cc2cccnc2)CC1 (stereo not shown) [Compound 53] |  |  | 84 | 92 |
| CC(C)(C)OC(=O)NC1CCN(CC(=O)NC2CCc3cc(F)ccc3C2Cc2cccnc2)CC1 (stereo not shown) [Compound 54] |  |  | 99 | 100 |
| CC(C)(C)OC(=O)NC1CCN(CC(=O)NC2CCc3cc(F)ccc3C2Cc2cccnc2)C1 (stereo not shown) [Compound 55] |  |  | 96 | 106 |
| COc1ccc2c(c1)CCC(NC(=O)CN1CCC(n3c(=O)[nH]c4ccccc43)CC1)C2Cc1ccsc1 (stereo not shown) [Compound 61] |  |  | 66 | 87 |
| COc1ccc2c(c1)CCC(NC(=O)CN1CCC(n3c(=O)[nH]c4ccccc43)CC1)C2Cc1cnc[nH]1 (stereo not shown) [Compound 73] |  |  | 32 | 63 |
| COc1ccc2c(c1)CCC(NC(=O)CN1CCC(n3c(=O)[nH]c4ccccc43)CC1)C2 (stereo not shown) [Compound 82] |  |  | 63 | 85 |
| O=C(CN1CCC(n2c(=O)[nH]c3ccccc32)CC1)NC1CCc2cc(O)ccc2C1 (stereo not shown) [Compound 83] |  |  | 72 | 92 |
| COc1ccc(C(CNC(=O)CN2CCC(n3c(=O)[nH]c4ccccc43)CC2)Cc2cccnc2)cc1 (stereo not shown) [Compound 86] |  |  | 88 | 91 |
| O=C(CN1CCC(n2c(=O)[nH]c3ccccc32)CC1)NCC(Cc1cccnc1)c1ccc(O)cc1 (stereo not shown) [Compound 87] |  |  | 97 | 96 |
| O=C(CN1CCC(NC(=O)c2ccccc2)CC1)NCC(Cc1cccnc1)c1ccc(F)cc1 (stereo not shown) [Compound 92] |  |  | 92 | 104 |
| COc1ccccc1N1CCN(CC(=O)NC2CCc3ccccc3C2Cc2cccnc2)CC1 (stereo not shown) [Compound 93] |  |  | 81 | 97 |
